The source made the active and inactive calls. The rule behind the calls is not given here.
Columns and labels:
[1] = molecular target: T1, Heat shock protein HSP90 (Homo sapiens) (UniProt P07900+P08238); assay: Inhibition of HSP90 in human NCI-H1975 cells assessed as upregulation of HSP70 expression at 0.03 to 0.3 uM measured upto 24 hrs by Western blot analysis; assay type: cell-based; conditions: dose 0.03-0.3 µM, time hrs <=24
[2] = molecular target: Histone deacetylase; assay type: tissue-based, Homo sapiens; conditions: hela
[3] = tested on: NCI-H1975; assay: Inhibition of IFN-gamma-induced PD-L1 in human NCI-H1975 cells incubated for 48 hrs by Western blot analysis; assay type: functional, cell-based; conditions: dose 0.3-3 µM
[4] = molecular target: T2, Protein deacetylase HDAC6 (Homo sapiens) (UniProt Q9UBN7); assay: Inhibition of HDAC6 in human NCI-H1975 cells assessed as increase in acetylated alpha tubulin level after 24 hrs by Western blot analysis; assay type: cell-based; conditions: dose 0.1-3 µM
T2 sequence (whole entry): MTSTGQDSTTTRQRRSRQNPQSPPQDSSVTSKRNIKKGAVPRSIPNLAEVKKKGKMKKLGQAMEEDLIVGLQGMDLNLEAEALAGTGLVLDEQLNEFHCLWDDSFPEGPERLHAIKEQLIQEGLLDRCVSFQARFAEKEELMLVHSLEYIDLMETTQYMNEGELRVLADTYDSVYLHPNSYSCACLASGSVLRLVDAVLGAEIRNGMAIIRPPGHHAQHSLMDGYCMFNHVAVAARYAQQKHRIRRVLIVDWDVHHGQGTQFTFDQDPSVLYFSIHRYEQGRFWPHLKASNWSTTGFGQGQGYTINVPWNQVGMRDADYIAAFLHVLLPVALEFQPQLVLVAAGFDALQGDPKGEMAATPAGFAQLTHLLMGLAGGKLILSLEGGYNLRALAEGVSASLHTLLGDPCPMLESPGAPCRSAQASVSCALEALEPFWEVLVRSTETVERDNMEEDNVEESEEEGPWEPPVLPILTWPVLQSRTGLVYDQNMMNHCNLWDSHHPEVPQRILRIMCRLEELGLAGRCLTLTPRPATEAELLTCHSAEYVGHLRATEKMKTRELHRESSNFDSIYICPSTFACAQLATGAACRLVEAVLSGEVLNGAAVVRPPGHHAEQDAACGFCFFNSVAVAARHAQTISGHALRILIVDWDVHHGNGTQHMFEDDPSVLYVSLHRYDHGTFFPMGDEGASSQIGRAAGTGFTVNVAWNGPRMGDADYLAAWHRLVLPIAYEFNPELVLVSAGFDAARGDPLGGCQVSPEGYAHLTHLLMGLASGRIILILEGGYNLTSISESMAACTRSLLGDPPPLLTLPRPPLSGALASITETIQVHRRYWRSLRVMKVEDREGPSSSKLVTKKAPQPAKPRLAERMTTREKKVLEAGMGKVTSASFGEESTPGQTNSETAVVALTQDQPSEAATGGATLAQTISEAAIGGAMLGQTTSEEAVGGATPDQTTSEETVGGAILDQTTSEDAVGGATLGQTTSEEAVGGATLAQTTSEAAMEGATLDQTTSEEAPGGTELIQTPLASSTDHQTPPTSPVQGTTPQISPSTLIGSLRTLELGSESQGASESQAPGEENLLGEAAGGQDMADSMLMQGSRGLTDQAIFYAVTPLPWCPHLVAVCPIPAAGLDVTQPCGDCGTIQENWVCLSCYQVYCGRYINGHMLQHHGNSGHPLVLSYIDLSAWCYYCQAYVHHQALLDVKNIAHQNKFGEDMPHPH

[5] = tested on: NCI-H1975; assay: Antitumor activity against human NCI-H1975 cells xenografted in BALB/c mouse assessed as reduction in tumor growth at 50 mg/kg, ip administered for 2 weeks and measured after 2 week relative to control; assay type: functional; conditions: 336 h, read-out: TGI
[6] = tested on: NCI-H1975; assay: Induction of apoptosis in human NCI-H1975 cells assessed as increase in PARP activation incubated for 48 hrs by PI staining based Western blot analysis; assay type: functional, cell-based; conditions: dose 0.1-3 µM
[7] = species on record: Homo sapiens; assay: Selectivity index, ratio of IC50 for recombinant human C-terminal FLAG-His-tagged HDAC1 (1 to 482 residues) expressed in Sf21 cells to IC50 for recombinant human HDAC6
[8] = tested on: NCI-H1975; assay: Antitumor activity against human NCI-H1975 cells xenografted in BALB/c mouse assessed as reduction in tumor growth at 100 mg/kg, ip administered for 2 weeks and measured after 2 week relative to control; assay type: functional; conditions: 336 h, read-out: TGI
[9] = molecular target: T1, Heat shock protein HSP90 (Homo sapiens); assay: Inhibition of HSP90 in human NCI-H1975 cells assessed as decrease in STAT3 Tyr705 phosphorylation at 3 uM measured after 12 hrs by Western blot analysis; assay type: cell-based
[10] = tested on: NCI-H1975; assay: Antitumor activity against human NCI-H1975 cells xenografted in BALB/c mouse assessed as reduction in tumor volume at 50 mg/kg, ip administered for 2 weeks and measured after 2 week; assay type: functional, organism-based
[11] = molecular target: T1, Heat shock protein HSP90 (Homo sapiens); assay: Inhibition of HSP90 in human NCI-H1975 cells assessed as downregulation of Akt expression at 0.03 to 0.3 uM measured upto 24 hrs by Western blot analysis; assay type: cell-based; conditions: dose 0.03-0.3 µM, time hrs <=24
[12] = tested on: NCI-H1975; assay: Induction of cell cycle arrest in human NCI-H1975 cells assessed as increase in subG1 phase at 0.1 to 3 uM incubated for 48 hrs by PI staining based flow cytometry analysis; assay type: functional; conditions: dose 0.1-3 µM
[13] = molecular target: Histone deacetylase 1 (Homo sapiens, UniProt Q13547); assay: Inhibition of recombinant human C-terminal FLAG-His-tagged HDAC1 (1 to 482 residues) expressed in Sf21 cells using RHK-K(Ac)-AMC as substrate incubated for 60 mins by fluorimetry analysis
[14] = tested on: NCI-H1975; assay: Induction of apoptosis in human NCI-H1975 cells assessed as increase in caspase 9 activation incubated for 48 hrs by PI staining based Western blot analysis; assay type: functional, cell-based; conditions: dose 0.1-3 µM
[15] = Toxicity in BALB/c mouse xenografted with human NCI-H1975 cells assessed as reduction in body weight 50 to 100 mg/kg, ip administered for 2 weeks and measured after 2 week; assay type: organism-based; conditions: in vivo, 336 h, dose 50-100 mg/kg
[16] = tested on: A549; assay: Growth inhibition of human A549 cells incubated for 48 hrs by SRB assay; assay type: functional; conditions: Homo sapiens, A549
[17] = tested on: NCI-H1975; assay: Antitumor activity against human NCI-H1975 cells xenografted in BALB/c mouse assessed as reduction in tumor growth at 50 mg/kg, ip administered for 2 weeks in presence of afatinib and measured after 2 week relative to control; assay type: functional; conditions: 336 h, read-out: TGI
[18] = tested on: NCI-H1975; assay: Induction of apoptosis in human NCI-H1975 cells assessed as increase in caspase 8 activation incubated for 48 hrs by PI staining based Western blot analysis; assay type: functional, cell-based; conditions: dose 0.1-3 µM
[19] = species on record: Homo sapiens; assay: Selectivity index, ratio of IC50 for recombinant human HDAC3 to IC50 for recombinant human HDAC6
[20] = tested on: NCI-H1975; assay: Inhibition of IFN-gamma-induced PD-L1 in human NCI-H1975 cells at 0.3 uM incubated for 48 hrs by Flow cytometry analysis; assay type: functional, cell-based

Histone deacetylase 1, sequence (Q13547 whole entry, the tested form may be a part): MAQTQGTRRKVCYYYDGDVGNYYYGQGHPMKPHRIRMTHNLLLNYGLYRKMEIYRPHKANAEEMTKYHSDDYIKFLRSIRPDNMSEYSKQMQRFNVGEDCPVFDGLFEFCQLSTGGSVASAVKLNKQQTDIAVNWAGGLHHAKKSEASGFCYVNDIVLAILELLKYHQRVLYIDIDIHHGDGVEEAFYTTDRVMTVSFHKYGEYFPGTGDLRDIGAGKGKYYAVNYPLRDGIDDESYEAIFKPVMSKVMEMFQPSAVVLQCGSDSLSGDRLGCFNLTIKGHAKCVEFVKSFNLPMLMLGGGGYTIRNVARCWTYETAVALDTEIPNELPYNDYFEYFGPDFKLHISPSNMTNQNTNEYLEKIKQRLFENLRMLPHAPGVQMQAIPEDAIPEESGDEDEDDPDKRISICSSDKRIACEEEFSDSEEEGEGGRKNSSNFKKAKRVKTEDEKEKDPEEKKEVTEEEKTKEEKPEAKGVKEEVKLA

CC(C)c1cc(C(=O)N2Cc3ccc(NC(=O)CCCCCCCCC(=O)NO)cc3C2)c(O)cc1O
inhibition [1]: Active
IC50 [2]: 388.8 nM
inhibition [3]: Dose-dependent effect
inhibition [4]: Dose-dependent effect
inhibition in vivo at 50 mg/kg [5]: 44.8%
Activity [6]: Dose-dependent effect
Ratio IC50 [7]: 434
inhibition in vivo at 100 mg/kg [8]: 69.7%
inhibition [9]: Active
Activity [10]: Active
inhibition [11]: Active
Activity [12]: Active
IC50 [13]: 1880 nM
Activity [14]: Dose-dependent effect
Activity [15]: Non-Toxic
GI50 [16]: 760 nM
inhibition in vivo at 50 mg/kg [17]: 72.3%
Activity [18]: Dose-dependent effect
Ratio IC50 [19]: 303
inhibition [20]: Active

From ChEMBL document CHEMBL4680193, “Isoindoline scaffold-based dual inhibitors of HDAC6 and HSP90 suppressing the growth of lung cancer in vitro and in vivo” (Eur J Med Chem, 2020)
